According to patent US10519113B2, “Kinase inhibitor compounds, compositions, and methods of treating cancer” (ICAHN SCHOOL OF MEDICINE AT MOUNT SINAI, priority 2016, dated 2019):
Entries after “also recorded” stand apart in the source; their conditions may differ.

Columns and labels:
[1] = system: ptc>dRet^M955T flies; experiment: rescue-from-lethality assay in ptc>dRet^M955T flies (drug screening); assay type: in vivo, Drosophila; details: drug in fly food, 25° C.
[2] = system: ptc>dRet^M955T flies; experiment: kinome genetic modifier screening of ptc>dRet^M955T flies in the presence of drug; assay type: in vivo, Drosophila
[3] = molecular target: T1, human BRAF (Homo sapiens, UniProt P15056); experiment: Kd measurement (KINOMEscan bead based competition assay), BRAF; details: in vitro binding assay
T1 construct: phage display fusion (kinase expressed on phage); purchased DiscoverX (KINOMEscan service); host or cells: phage
T1 sequence (P15056 whole entry, the tested form may be a part): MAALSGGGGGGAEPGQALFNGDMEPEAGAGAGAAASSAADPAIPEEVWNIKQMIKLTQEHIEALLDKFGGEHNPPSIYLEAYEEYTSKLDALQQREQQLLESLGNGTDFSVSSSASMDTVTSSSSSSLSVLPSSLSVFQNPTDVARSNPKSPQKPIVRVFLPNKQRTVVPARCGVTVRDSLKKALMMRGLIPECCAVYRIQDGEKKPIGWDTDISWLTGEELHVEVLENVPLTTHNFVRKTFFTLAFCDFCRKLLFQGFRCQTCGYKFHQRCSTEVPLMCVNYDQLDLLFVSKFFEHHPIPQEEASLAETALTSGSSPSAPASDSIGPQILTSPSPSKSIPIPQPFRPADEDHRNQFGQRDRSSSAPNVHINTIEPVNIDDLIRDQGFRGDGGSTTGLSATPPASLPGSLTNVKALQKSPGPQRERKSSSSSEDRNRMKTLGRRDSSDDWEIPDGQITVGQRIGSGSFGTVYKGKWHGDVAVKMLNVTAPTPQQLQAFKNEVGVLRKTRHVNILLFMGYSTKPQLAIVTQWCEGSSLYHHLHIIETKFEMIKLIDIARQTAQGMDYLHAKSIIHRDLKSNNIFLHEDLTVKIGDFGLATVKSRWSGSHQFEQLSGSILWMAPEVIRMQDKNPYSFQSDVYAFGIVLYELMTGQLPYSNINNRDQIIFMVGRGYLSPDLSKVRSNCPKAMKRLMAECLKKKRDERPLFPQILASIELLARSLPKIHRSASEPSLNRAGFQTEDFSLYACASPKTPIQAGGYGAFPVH
Procedure: Kd values were determined by DiscoverX using a bead based competition assay (KINOMEscan). In brief, kinases were expressed on phage and immobilized on beads via active site-directed ligands. Test compounds were premixed with kinases and assayed for the ability to compete for immobilized ligands. Binding constants were calculated with a standard dose-response curve and the Hill equation, with Hill slope set to −1. […] Kd values and s.e.m. are the average of two biological replicates.

[4] = system: EPH; experiment: kinase percent inhibition measurement, EPH; assay type: biochemical, human; details: cell-free kinase inhibition assay, compounds screened at 1 μM
Procedure: (§1) The sorafelogs were assayed against a panel of purified human kinases (ThermoFisher) to measure percentage inhibition values and derive kinome profiles (FIG. 61). All compounds were screened at 1 μM, using two biological replicates to determine percent inhibition values. Detailed procedures for kinase reactions and assay formats are described at www.thermofisher.com/kinaseprofiling.

[5] = molecular target: T2, FRK (Homo sapiens, UniProt P42685); experiment: kinase percent inhibition measurement, FRK; assay type: biochemical; details: cell-free kinase inhibition assay, compounds screened at 1 μM
T2 construct: purchased ThermoFisher
T2 sequence (P42685 whole entry): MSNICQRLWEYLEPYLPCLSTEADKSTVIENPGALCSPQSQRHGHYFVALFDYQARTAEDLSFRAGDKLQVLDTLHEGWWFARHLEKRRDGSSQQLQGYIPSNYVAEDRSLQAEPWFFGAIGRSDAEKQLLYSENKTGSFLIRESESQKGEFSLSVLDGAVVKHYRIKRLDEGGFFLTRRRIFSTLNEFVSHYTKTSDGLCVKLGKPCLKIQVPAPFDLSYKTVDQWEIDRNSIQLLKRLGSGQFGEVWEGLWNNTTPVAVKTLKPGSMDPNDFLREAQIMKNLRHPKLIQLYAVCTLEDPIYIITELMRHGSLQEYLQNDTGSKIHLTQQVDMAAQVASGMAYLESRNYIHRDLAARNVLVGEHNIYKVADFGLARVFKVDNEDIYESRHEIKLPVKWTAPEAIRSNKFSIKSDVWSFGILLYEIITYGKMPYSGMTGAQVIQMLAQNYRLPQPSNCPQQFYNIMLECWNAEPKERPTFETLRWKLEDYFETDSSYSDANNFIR
Procedure: as §1

[6] = system: 765>dRet^M955T flies; experiment: wing venation assay in adult flies; details: for ectopic wing venation in 765>dRet^M955T flies: doses tested
From the text: More than 15 adult wings were scored for abnormal wing venation.

[7] = system: dRet^M955T-expressing wing cells; experiment: in vivo cell migration assay in developing wing discs; details: for effect of reduced Lk6 on suppression of cell migration by compound: 765>dRet^M955T; for ptc>dRet^M955T-mediated EMT and cell migration/invasion: wing discs of ptc>dRet^M955T larvae
From the text: For in vivo cell migration assays, third-instar larvae were dissected to collect developing wing discs. After fixation with 4% paraformaldehyde in PBS, discs were whole-mounted and observed for dRet^M955T-expressing cells labeled with GFP under a confocal microscope. At least 20 wing discs were studied for each genotype or treatment. Phospho-Src was stained with anti-Src(pY418) antibody (Invitrogen).
In addition to directing late lethality, the ptc>dRet^M955T transgenes targeted dRet^M955T expression to a stripe of cells at the midline of the developing wing disc epithelium; cells were visualized with an included UAS-GFP transgene.

[8] = molecular target: T3, human RET (Homo sapiens, UniProt P07949); experiment: Kd measurement (KINOMEscan bead based competition assay), RET; assay type: binding; details: cell-free in vitro
T3 construct: phage display fusion (kinase expressed on phage); purchased DiscoverX (KINOMEscan service); host or cells: phage
T3 sequence (P07949 29-1114): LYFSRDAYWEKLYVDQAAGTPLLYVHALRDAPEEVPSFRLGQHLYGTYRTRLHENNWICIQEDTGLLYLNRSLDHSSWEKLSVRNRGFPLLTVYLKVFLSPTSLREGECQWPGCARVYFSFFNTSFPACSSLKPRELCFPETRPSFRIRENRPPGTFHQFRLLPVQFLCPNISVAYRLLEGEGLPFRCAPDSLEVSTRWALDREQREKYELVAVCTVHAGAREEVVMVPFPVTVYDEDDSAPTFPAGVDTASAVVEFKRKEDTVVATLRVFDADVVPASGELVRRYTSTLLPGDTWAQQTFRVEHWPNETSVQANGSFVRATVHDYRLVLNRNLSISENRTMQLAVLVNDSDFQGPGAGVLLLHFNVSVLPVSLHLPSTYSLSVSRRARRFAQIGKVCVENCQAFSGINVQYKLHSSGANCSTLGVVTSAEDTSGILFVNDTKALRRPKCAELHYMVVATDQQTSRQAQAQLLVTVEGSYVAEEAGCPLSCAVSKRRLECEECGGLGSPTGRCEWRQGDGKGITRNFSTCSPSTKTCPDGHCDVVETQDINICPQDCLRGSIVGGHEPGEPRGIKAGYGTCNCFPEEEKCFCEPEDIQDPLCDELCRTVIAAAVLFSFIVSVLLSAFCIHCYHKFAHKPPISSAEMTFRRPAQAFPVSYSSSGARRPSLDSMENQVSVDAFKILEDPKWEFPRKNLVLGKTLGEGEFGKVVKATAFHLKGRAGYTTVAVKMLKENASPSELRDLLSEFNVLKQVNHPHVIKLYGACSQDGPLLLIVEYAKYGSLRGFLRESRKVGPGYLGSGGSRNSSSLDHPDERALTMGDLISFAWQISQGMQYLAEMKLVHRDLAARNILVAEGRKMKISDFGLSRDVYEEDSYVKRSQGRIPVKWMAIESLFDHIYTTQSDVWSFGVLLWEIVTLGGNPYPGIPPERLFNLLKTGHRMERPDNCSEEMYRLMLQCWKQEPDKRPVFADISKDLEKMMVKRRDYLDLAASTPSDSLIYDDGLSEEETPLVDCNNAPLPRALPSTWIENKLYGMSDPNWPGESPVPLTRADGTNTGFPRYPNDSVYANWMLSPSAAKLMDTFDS
Procedure: (§2) Kd values were determined by DiscoverX using a bead based competition assay (KINOMEscan). In brief, kinases were expressed on phage and immobilized on beads via active site-directed ligands. Test compounds were premixed with kinases and assayed for the ability to compete for immobilized ligands. Binding constants were calculated with a standard dose-response curve and the Hill equation, with Hill slope set to −1. […] For each sorafelog-kinase pair, an 11-point series ranging from 30,000 to 0.5 nM, in 3-fold dilutions, were used to derive Kd values. Kd values and s.e.m. are the average of two biological replicates.

[9] = molecular target: T4, MKNK1 (Homo sapiens, UniProt Q9BUB5); experiment: Kd measurement (KINOMEscan bead based competition assay), MKNK1; assay type: binding; details: in vitro
T4 construct: phage display fusion (kinase expressed on phage); purchased DiscoverX (KINOMEscan service); host or cells: phage
T4 sequence (Q9BUB5 whole entry, the tested form may be a part): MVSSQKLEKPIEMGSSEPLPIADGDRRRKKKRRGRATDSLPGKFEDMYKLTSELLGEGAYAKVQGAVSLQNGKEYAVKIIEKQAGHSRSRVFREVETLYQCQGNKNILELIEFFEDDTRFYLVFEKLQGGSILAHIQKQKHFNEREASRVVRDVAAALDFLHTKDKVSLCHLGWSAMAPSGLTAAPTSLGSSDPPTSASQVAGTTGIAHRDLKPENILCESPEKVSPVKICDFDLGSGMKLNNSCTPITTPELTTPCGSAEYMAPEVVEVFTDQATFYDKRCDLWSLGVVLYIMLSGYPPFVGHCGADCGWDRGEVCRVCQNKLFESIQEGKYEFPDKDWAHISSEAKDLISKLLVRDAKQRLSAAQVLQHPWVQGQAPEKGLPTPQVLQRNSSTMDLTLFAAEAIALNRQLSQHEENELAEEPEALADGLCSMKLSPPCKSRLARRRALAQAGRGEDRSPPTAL
Procedure: as §2

[10] = system: TT human MTC cells; experiment: soft agar colony formation assay; assay type: cell-based; details: colonies at three weeks
From the text: Imaged with ×40. […] Error bars, standard errors in triplicate.

[11] = molecular target: T5, RET(M918T) (Homo sapiens, UniProt P07949, M918T); experiment: Kd measurement (KINOMEscan bead based competition assay), RET(M918T); assay type: binding; details: in vitro
T5 construct: phage display fusion (kinase expressed on phage); purchased DiscoverX (KINOMEscan service); host or cells: phage
T5 sequence (P07949 29-1114 M918T): as the sequence (P07949 29-1114) above, with M890T counted along it
Procedure: as §2

[12] = system: TT cell tumors; experiment: TT cell xenograft assay in nude mice; assay type: in vivo, mouse; details: 10 mg/kg/day p.o.
Procedure: FIGS. 66C-E illustrate the effectiveness of the oral administration of APS6-45 to mice with xenografts. […] Dosing (10 mg/kg/day each) was started on day 0 after establishing TT cell tumors (˜120 mm^3) subcutaneously in nude mice. Error bars, standard errors (n=10). Cabo, cabozantinib; soraf, sorafenib. […] FIG. 66D and FIG. 67 illustrate Waterfall plots showing percent changes in tumor volume on day 30 relative to pretreatment baselines. Each bar represents a single animal. […] Asterisk, complete response. Two mice were lost during the course of the experiment due to unknown causes. Administration of APS6-45 had no effect on mouse body weight as illustrated in FIG. 66E (same legend as FIG. 66C).
Xenograft assays were also performed by Washington Biotechnology. 40 female nude mice (5-6 weeks) were implanted subcutaneously with TT cells. […]

[13] = toleration assay in mice; assay type: in vivo, mouse; details: female athymic nude mice, oral doses escalated from 0.1 up to 160 mg/kg/day
Procedure: Toleration assays for APS6-45 were performed by Washington Biotechnology (Baltimore, Md.). Briefly, five female athymic nude mice (5-6 weeks) were administered with increasing oral doses of APS6-45 starting at 0.1 mg/kg/day and observed for 2 days for signs of clinical distress such as weight loss, discharges, and morbidity.

[14] = pharmacokinetics assay in mice (clinical signs); assay type: in vivo, mouse; details: male ICR mice, 20 mg/kg orally
Procedure: Phamacokinetics assays for APS6-45 were performed by Medicilon Preclinical Research (Shanghai, China). 20 mg/kg of APS6-45 was dosed orally to male ICR mice (5-6 weeks of age), and its plasma concentrations were determined at 0.25, 0.5, 1, 2, 4, 8, 10, and 24 hours post dosing.

[15] = system: ptc>dRet^M955T flies; experiment: fly rough eye phenotype; details: APS6-45 100 μM, AD80 100 μM
[16] = system: non-oncogenic w^- flies; experiment: whole-body toxicity in control, non-transformed flies; assay type: in vivo, Drosophila; details: fed to control

CNC(=O)c1cc(Oc2ccc(NC(=O)Nc3cc(C(F)(F)F)ccc3F)cc2)ccn1 [LS1-15, 4-(4-(3-(2-Fluoro-5-(trifluoromethyl)phenyl)ureido)phenoxy)-N-methylpicolinamide]
rescue of ptc>dRet^M955T viability, in words [1]: rescued viability significantly better than sorafenib; also recorded: most effective in rescuing lethality
viability of drug-treated ptc>dRet^M955T flies (kinase-proficient control) ([2]; 23° C.): ~50%
survival to adulthood of ptc>dRet^M955T, Lk6^−/+ flies ([2]; one active allele of Lk6 removed, in the presence of drug): 0%
viability of ptc>dRet^M955T, phl^−/+ flies ([2]; phl (Raf ortholog) heterozygous, in the presence of drug): 96%
BRAF binding, in words [3]: significant binding
inhibition of EPH kinase activity [4]: inhibit
inhibition of FRK kinase activity [5]: inhibit
wing venation at higher concentrations ([6]; higher concentrations / high doses that rescue ptc>dRet^M955T viability): suppressed venation; also recorded: did not promote ectopic wing venation
wing venation at low dose ([6]; low dose (10 μM)): enhanced venation; also recorded: stimulated significant excess wing vein material
effect of reduced Lk6 on suppression of cell migration by compound [7]: reversed suppression
ptc>dRet^M955T-mediated EMT and cell migration/invasion [7]: strongly suppressed

CNC(=O)c1cc(Oc2ccc(NC(=O)Nc3cc(C(F)(F)F)ccc3F)c(F)c2)ccn1 [APS3-69-1, 4-(3-Fluoro-4-(3-(2-fluoro-5-(trifluoromethyl)phenyl)ureido)phenoxy)-N-methylpicolinamide]
ptc>dRet^M955T-mediated EMT and cell migration/invasion [7]: strongly suppressed

CNC(=O)c1cc(Oc2ccc(NC(=O)Nc3cc(C(F)(F)C(F)(F)F)ccc3F)cc2)ccn1 [APS5-16-2, 4-(4-(3-(2-Fluoro-5-(perfluoroethyl)phenyl)ureido)phenoxy)-N-methylpicolinamide]
rescue of ptc>dRet^M955T viability, in words [1]: significant rescue; also recorded: strongly increased overall ptc>dRet^M955T survival beyond LS1-15
BRAF binding, in words [3]: significantly reduced BRAF binding
RET binding / inhibition, in words [8]: retaining RET inhibition
MKNK1 binding, in words [9]: significantly reduced MKNK1 binding
MTC colony formation [10]: Suppression of MTC colony formation
ectopic wing venation in 765>dRet^M955T flies [6]: exclusively suppressed wing venation; also recorded: failed to promote ectopic wing venation
effect of reduced Lk6 on suppression of cell migration by compound [7]: not affected

CNC(=O)c1cc(Oc2ccc(NC(=O)Nc3cccc(C(F)(F)F)c3)cc2)ccn1 [LS1-11-2, N-Methyl-4-(4-(3-(3-(trifluoromethyl)phenyl)ureido)phenoxy)picolinamide]
rescue of ptc>dRet^M955T viability, in words [1]: reduced survival

CNC(=O)c1cc(Oc2ccc(NC(=O)Nc3cc(C(F)F)ccc3F)cc2)ccn1 [APS4-54, 4-(4-(3-(5-(Difluoromethyl)-2-fluorophenyl)ureido)phenoxy)-N-methylpicolinamide]
rescue of ptc>dRet^M955T viability, in words [1]: poor whole animal activity relative to LS1-15; also recorded: reduced rescue

CNC(=O)c1cc(Oc2ccc(NC(=O)Nc3ccc(Cl)c(C(F)(F)F)c3)c(F)c2)ccn1 [regorafenib, 4-(4-(3-(4-Chloro-3-(trifluoromethyl)phenyl)ureido)-3-fluorophenoxy)-N-methylpicolinamide, reference compound]
rescue of ptc>dRet^M955T viability, in words [1]: weak efficacy

CNC(=O)c1cc(Oc2ccc(NC(=O)Nc3cc(C)ccc3F)cc2)ccn1 [APS4-35-1, 4-(4-(3-(2-Fluoro-5-methylphenyl)ureido)phenoxy)-N-methylpicolinamide]
rescue of ptc>dRet^M955T viability, in words [1]: poor whole animal activity relative to LS1-15; also recorded: reduced rescue

CNC(=O)c1cc(Oc2ccc(NC(=O)Nc3cc(C(F)(C(F)(F)F)C(F)(F)F)ccc3F)cc2)ccn1 [APS6-45, 4-(4-(3-(2-Fluoro-5-(perfluoropropan-2-yl)phenyl)ureido)phenoxy)-N-methylpicolinamide]
rescue of ptc>dRet^M955T viability, in words [1]: strongest efficacy; also recorded: strongly increased overall ptc>dRet^M955T survival beyond LS1-15
rescue of ptc>dRet^M955T flies (rescued adults / total pupae, viability) ([1]; optimal doses): 84%
BRAF binding, in words [3]: significantly reduced BRAF binding
RET binding / inhibition, in words [8]: retaining RET inhibition; also recorded: lower activity; also recorded: weakest RET binding
activity against oncogenic RET, in words [11]: lower activity
MKNK1 binding, in words [9]: only a small decrease
MTC colony formation [10]: Suppression of MTC colony formation
TT cell tumor growth in nude mice [12]: Suppression of TT cell growth in vivo
mouse body weight ([12]; xenograft study): no effect
signs of clinical distress (weight loss, discharges, morbidity) [13]: no such signs were observed
treatment-related clinical signs [14]: No treatment-related clinical signs were observed
rough eye phenotype [15]: strongly suppressed; also recorded: strongly rescued the rough eye phenotype
ectopic wing venation in 765>dRet^M955T flies [6]: exclusively suppressed wing venation; also recorded: failed to promote ectopic wing venation
effect of reduced Lk6 on suppression of cell migration by compound [7]: not affected

CC(C)n1nc(-c2ccc(NC(=O)Nc3cc(C(F)(F)F)ccc3F)cc2)c2c(N)ncnc21 [AD80, reference compound]
rough eye phenotype [15]: did not

CNC(=O)c1cc(Oc2ccc(NC(=O)c3ccc(Cl)c(C(F)(F)F)c3)cc2)ccn1 [LS1-37, 4-(4-(4-Chloro-3-(trifluoromethyl)benzamido)phenoxy)-N-methylpicolinamide]
whole body toxicity [16]: toxic
ptc>dRet^M955T-mediated EMT and cell migration/invasion [7]: worsened cell migration
